According to patent US11166907B2, “Non-covalently assembled conductive hydrogel” (DENOVOMATRIX GMBH, priority 2017, dated 2021):
Blank lines part the entries; values can stand above or below the compound they belong to.

Key:
[1] = Drug encapsulation and release from conductive hydrogels; type: physicochemical
Protocol: Because the networks of PEG-peptide/PEDOT:PSS hydrogel and the PEG-peptide/rGO:PEDOT:PSS hydrogels are amphipathic, they can bind to both hydrophobic and charged hydrophilic compounds. The encapsulation of hydrophilic and hydrophobic drug compounds was tested. PEDOT:PSS was premixed with either hydrophilic compound doxorubicin or hydrophobic compound paclitaxel, followed by adding 5 kD-PEG-KA7. […] Doxorubicin can be encapsulated with a concentration of 0.8 mg/mL, while 0.1 mg/mL paclitaxel can be encapsulated into the hydrogel. Paclitaxel in excess formed precipitate at the bottom. rGO:PEDOT:PSS was premixed with either doxorubicin or paclitaxel, followed by adding starPEG-KA7. […] Doxorubicin can be encapsulated with a concentration as high as 0.8 mg/mL, while 1.0 mg/mL paclitaxel can be encapsulated into the hydrogel. The hydrogels loaded with drugs were then incubated in PBS, and the release of drugs was monitored.

HeLa cells = assay: Cytotoxic effect of drug released from drug-encapsulating hydrogels; type: cell-based; conditions: drug released from rGO:PEDOT:PSS/starPEG-KA7 hydrogels, diluted 10× or 100×
Protocol: The released compounds were diluted 10× or 100× times for the treatment.

[2] = Electrochemical properties (cyclic voltammetry, impendency); type: physicochemical
Description: The cyclic voltammetry (CV) curve of 5 kD-PEG-KA7/PEDOT:PSS is typical of PEDOT:PSS-based materials, showing the oxidation peak between +500 mV and +650 mV and reduction occurring between −100 mV and −50 mV (FIG. 3A). The structure-function relationship between chemical composition of the modular system and electrochemical properties was investigated

[3] = Hydrogel formation by mixing PEG-peptide conjugate with anionic polymer; type: physicochemical; conditions: (BX)n oligopeptide coupled to PEG-5 k (FIG. 1B)
Protocol: 14-kD-heparin ([…], 2.5 mM) and star-PEG-peptide conjugates (6.25 mM, 3.125 mM) were dissolved in physiologic phosphate buffer solution (1×PBS) water or cell culture medium with 2% fetal bovine serum (FBS). These solutions were dissolved in a ratio of 1:4 heparin:star-PEG-peptide-conjugate by obtaining 0.5 mM or 5 mM 14-kD-heparin and 2.5 mM or 5 mM star-PEG-peptide. The ligand/mol ratio was 2:1, 1:1 and 1:5 relative to the mol ratio of 14-kD-heparin and the star-PEG-peptide-conjugate. The mixtures were incubated within a time frame of one hour to overnight at room temperature […]. The gelling time spanned from present up to several hours depending on the applied peptide motif. A hydrogel was formed when it survived the addition of physiological phosphate buffer solution (1×PBS) pH 7.4 to the mixture after the incubation of the mixture over the prior night without mixing with the added solution.
L1-(BX)n peptides comprising a (BX)n peptide selected from KA7, KA5, KA3, KS7, KG7, RA7, and RG7, where X is alanine, glycine or serine (FIG. 1B), were synthesized. The thiol group of cysteine was used to link the peptides to maleimide-functionalized PEG by Michael-type addition reaction, while the tryptophan was used to facilitate the monitoring during HPLC purification and quantification (supporting information). It was first tested whether sulfated oligosaccharide could be replaced by PEDOT:PSS to form a stable hydrogel. starPEG-KA7 in PBS was mixed with PEDOT:PSS aqueous solution to final concentrations of 2.5 mM and 1%, respectively. […] Without conjugation to the oligopeptide, neither maleimide-functionalized nor amino-functionalized PEG formed a hydrogel with PEDOT:PSS.
Moreover, it is much easier to separate a linear PEG chain with two peptides from that with only one peptide, as compared to purify the starPEG with 4 peptides from a mixture of lower degree of modification. Therefore, in the following study, the hydrogel formation using linear PEG-peptides was investigated. […] To incorporate a cell adhesive motiv into the modular network, the RGDSP (SEQ ID NO: 25) sequence was added as part of the linker to the KA7 oligopeptide. […] L2 contains the RGDSP (SEQ ID NO: 25) sequence.
To test whether the non-covalent assembling approach can also be applied to other conductive polymers, the hydrogel formation using PEG-peptide or starPEG-peptide with graphene derivatives was investigated. While graphene has very poor water solubility, graphene oxide (GO) was used. […] Apparently, the carboxylic acid presented on graphene is not sufficient to form stable crosslinking with positively charged peptide-polymer.
Reducing GO in the present of PSS also led to water-soluble and conductive material rGO/PSS. Hydrogel formation using rGO:PSS or rGO:PEDOT:PSS (FIG. 5A) was tested. […]

[4] = 5 kD-PEG-KA7/PEDOT:PSS hydrogel
[5] = rGO:PEDOT:PSS/starPEG-KA7 hydrogel
[6] = the hydrogel (description, type not specified)

concentration that can be encapsulated [1, 4]: 800 µg/mL | concentration that can be encapsulated [1, 5]: 800 µg/mL | concentration that can be encapsulated [1, 6]: 800 µg/mL
Compound: COc1cccc2c1C(=O)c1c(O)c3c(c(O)c1C2=O)C[C@@](O)(C(=O)CO)C[C@@H]3O[C@H]1C[C@H](N)[C@H](O)[C@H](C)O1 [Doxorubicin, doxorubicin]
effect on HeLa cells (HeLa cells): cytotoxic effect

concentration that can be encapsulated [1, 4]: 100 µg/mL | concentration that can be encapsulated [1, 5]: 1000 µg/mL | concentration that can be encapsulated [1, 6]: 1000 µg/mL
Compound: CC(=O)O[C@H]1C(=O)[C@@]2(C)[C@H]([C@H](OC(=O)c3ccccc3)[C@]3(O)C[C@H](OC(=O)[C@H](O)[C@@H](NC(=O)c4ccccc4)c4ccccc4)C(C)=C1C3(C)C)[C@]1(OC(C)=O)CO[C@@H]1C[C@@H]2O [paclitaxel]
effect on HeLa cells (HeLa cells): cytotoxic effect

Compound: CWGGRGDSP [L2, 14]
change of impendency / conductivity compared to 5 kD-PEG-KA7/PEDOT:PSS ([2]; alanine replaced by serine, or RGDSP added within linker): minor effect on the conductivity

Compound: KAKAKAKAKA [KA5]
hydrogel formation with PEDOT:PSS [3]: formed homogeneous hydrogels

Compound: KAKAKAKAKAKAKA [KA7]
hydrogel formation with PEDOT:PSS [3]: formed homogeneous hydrogels

Compound: KSKSKSKSKSKSKS [KS7]
hydrogel formation with PEDOT:PSS [3]: formed homogeneous hydrogels

Compound: RARARARARARARA [RA7]
hydrogel formation with PEDOT:PSS [3]: formed homogeneous hydrogels

effect on conductivity of hydrogel ([2]; 1 mM heparin in hydrogel of 1% PEDOT:PSS and 2.5 mM starPEG-KA7, versus 1% PEDOT:PSS and 2.5 mM 5 kD-PEG-KA7): enhanced the conductivity
Compound: heparin
